Reference: US20250346943A1, “DEGRADER COMPOUNDS OF QSOX1 mRNA” (UNIVERSITY OF FLORIDA RESEARCH FOUNDATION, INCORPORATED, priority 2022, published 2025)

Legend:
QSOX1-a mRNA = QSOX1-a mRNA abundance in RNase L-knockdown (CRISPR-edited) MDA-MB-231 cells; format: cell-based, human; settings: CRISPR-edited cells with RNase L knockdown
Procedure: The CRISPR-edited MDA-MB-231 cell lines used in this study were the same as those previously reported and characterized.^8 Briefly, lentiviral constructs containing Cas9 and gRNA targeting RNase L mRNA (or a scramble control) were purchased (Transomic Tech) and transfected in HEK293T cells (ATCC CRL-11268) to harvest virus. Transduction to MDA-MB-231 cells were performed in the presence of […] polybrene (Millipore, Cat #TR-1003-G) followed by selection with puromycin.
Analysis of mRNA Abundance by RT-qPCR. Unless stated otherwise, all RT-qPCR experiments were performed to measure nascent RNA levels by using Click-it Nascent RNA Capture Kit (Cat #C10365, Thermo Fisher) per the manufacturer's protocols. Briefly, cells were treated with 0.2 mM of ethynyl uridine (EU) in growth medium for 16 h, after which the medium was replaced with fresh growth medium lacking EU. Compound or ASO treatment was performed at the same time of initial EU treatment, and compounds were replenished after replacing the medium to remove EU. Total RNA was extracted by using a Zymo Quick-RNA Miniprep Kit as per manufacturer's protocol with DNase treatment. The click reaction and pull-down of nascent RNA were performed as described in “In Vitro Chemical-Crosslinking and Isolation by Pull-down (Chem-CLIP) with Fluorescently Labeled RNA”. […]

human transcriptome = assay: Chem-CLIP-Map-Seq transcriptome-wide target profiling in live MDA-MB-231 cells; format: cell-based; settings: 20 μM, 16 h
Procedure: Additional studies were performed in live MDA-MB-231 cells to profile the cellular targets as well as the small molecule binding site within them, via Chem-CLIP-Map-Seq,^21 which had not previously been applied transcriptome-wide. After treatment (20 μM; 16 h) and cross-linking, total RNA was harvested and fragmented prior to pull-down (FIG. 2A). Random fragmentation was completed first to: 1) reduce sequence bias in library preparation, 2) reduce background signal in the RNA-seq analysis; and 3) allow for only the regions bound by the small molecules to be pulled down rather than the entire transcript, identifying both the target and the binding site within it. In parallel, a control diazirine probe that lacks an RNA-binding functionality (FIG. 2B) was used to identify targets that non-specifically react with the cross-linking moiety, where cross-linking is not driven by the RNA-binding elements.
Genrich uses a null model with a log-normal distribution to calculate p values by comparing sequencing runs of the same RNA sample before and after pull-down.
Chemical-Cross-linking and Isolation by Pull-down (Chem-CLIP) in Live Cells. MDA-MB-231 cells were seeded in 60 mm dishes and allowed to reach ˜80% confluency. The cells were then treated with 20 μM of compound in growth medium and incubated for 16 h. Cells were washed with 1×DPBS and irradiated with UV light for 10 min. Total RNA was harvested using a Zymo Quick-RNA Miniprep Kit per the manufacturer's protocol with DNase treatment. Total RNA was chemically fragmented by using an NEBNext Magnesium RNA Fragmentation Module (E6150S) per manufacturer's protocol to achieve final lengths between 100-150 nucleotides Pull-down of cross-linked RNAs was performed by adding 10 μg of total RNA to 100 μL of azide-disulfide agarose beads (Click Chemistry Tools, 1238-2) pre-washed with 25 mM HEPES, pH 7.0. The click reaction and pull-down were completed as described in “In Vitro Chemical-Crosslinking and Isolation by Pull-down (Chem-CLIP) with Fluorescently Labeled RNA”. The pulled down RNA was purified by RNA CleanXP beads (Beckman, A66514) per manufacturer's protocol.
RNA-seq Library Preparation and Data Analysis. The quality of the pulled down RNA was analyzed by using an Agilent 2100 Bioanalyzer RNA nanochip as well as to confirm fragment lengths. RNA concentration was quantified by Qubit 2.0 Fluorometer (Invitrogen). The input RNA (200 ng) was depleted of ribosomal RNA with NEBNext rRNA Depletion Module (E6310) according to manufacturer's recommendations. Library preparation was performed with NEBNext Ultra II Directional RNA kit (E7760) per manufacturer's protocols. Briefly, the rRNA-depleted samples were reverse transcribed with random hexamer primers to generate first strand cDNA, followed by second strand synthesis with dUTP instead of dTTP. The cDNA was end repaired and adenylated at their 3′ ends, followed by adaptor ligation. The strand information of the RNA was preserved by using USER enzyme (Uracil-specific excision reagent) to degrade the second strand. The cDNA was then PCR amplified with barcoded Illumina-compatible primers to generate the final libraries. These libraries were loaded into a NextSeq 500 v2.5 flow cell and sequenced with 2×40 bp paired-end chemistry. All fastq files were aligned to the human genome by STAR.^9 The output bam files were processed by Genrich (v0.6.1, available at https://github.com/jsh58/Genrich) for peak calling to identify regions of enrichment (p<0.001 and False Discovery Rate=1%). Fold enrichment was calculated by Deeptool^10 and visualized by IGV browser.^11 A minimum read count of 5 and a minimum fold enrichment of 1.5 were applied filter to filter out low-confidence peaks.

[1] = tested on: base paired (BP) mutant RNA lacking the U-bulge; assay: In vitro Chem-CLIP with Cy5-labeled mutant RNA; format: binding; settings: U-bulge mutated to A/U base pair
Procedure: In Vitro Chemical-Crosslinking and Isolation by Pull-down (Chem-CLIP) with Fluorescently Labeled RNA. Cy5-labeled RNA (100 μL, 2 μM) was folded by heating at 95° C. for 2 min in 1× Folding Buffer and cooled on ice. The RNA was then mixed with F1 at the indicated concentrations. The sample was irradiated with UV light (365 nm) for 15 min and then added to 100 μL of azide-disulfide agarose beads (Click Chemistry Tools, 1238-2) pre-washed with 200 μL of 25 mM HEPES, pH 7.0. A click reaction solution was prepared by mixing 30 μL of 250 mM sodium ascorbate, 30 μL of 10 mM CuSO4, and 30 μL of 50 mM THPTA, which was added to the sample. The sample was incubated while rotating at 37° C. for 2 h, briefly centrifuged, and then the supernatant was decanted. The beads were washed six times with 1× Washing Buffer (10 mM Tris-HCl, pH 7, 4 M NaCl, 1 mM EDTA, and 0.05% (v/v) Tween-20) following by incubation with 1× Releasing Buffer (50 mM TCEP and 100 mM K2CO3) at 37° C. for 30 min. An equivalent of iodoacetamide (200 mM) was added to the sample, which was incubated at 37° C. for an additional 30 min. The sample was briefly centrifuged and supernatant containing RNA was carefully transferred to a clean tube. Cy-5 fluorescence in the supernatant was measured with a Molecular Devices SpectraMax M5 plate reader with an excitation wavelength of 640 nm and an emission wavelength of 680 nm. […]

SMILES	effect on QSOX1-a mRNA in RNase L-knockdown cells (QSOX1-a mRNA)	largest enrichments (two transcripts) (human transcriptome) [fold]	number of transcripts enriched after eliminating transcripts also bound by the control diazirine (human transcriptome)	cross-linking / pull-down of mutant RNA [1]
CCOC(=O)C1=C(Nc2ccccc2)S/C(=C\c2ccc(OCCOCCOCCOCCNC(=O)CCC(=O)N(C)[C@H]3CC[C@@H](c4ccc(Cl)c(Cl)c4)c4ccccc43)c(O)c2)C1=O [Compound F1-RIBOTAC]	ablated	–	–	–
C#CCCC1(CCC(=O)N(C)[C@H]2CC[C@@H](c3ccc(Cl)c(Cl)c3)c3ccccc32)N=N1 [Compound F1]	–	> 12	51	ablated
